In patent US11447486B2, “2-amino-benzimidazole derivatives and their use as 5-lipoxygenase and/or prostaglandin E synthase inhibitors” (INSTITUT PASTEUR KOREA, priority 2014, dated 2022):

Columns and labels:
[1] = tested on: Rat basophilic leukemia (RBL) cells; assay: LTB4 secretion assay in RBL (rat basophilic leukemia cells); format: cell-based; conditions: Rattus norvegicus, RBL
Method: Rat basophilic leukemia (RBL) cells (ATCC, Cat #CRL-2256) were maintained in EMEM (ATCC, Cat #30-2003) supplemented with 15% FBS. The day before RBL assay, cells were seeded at a concentration of 2×10^4 cells per well in 96-well plates. The media was replaced with 100 ul of EMEM supplemented with 0.5% FBS and compounds in dose response(5 nM to 100 uM) were added. After 15 min of pre-incubation at 37° C., arachidonic acid and calcium ionophore (A23187) were added to give a final concentration of 2.5 uM and 5 uM, respectively. After a further 10 min incubation at 37° C., culture supernatant was transferred and quantification of LTB4 was done with a Leukotriene B4 EIA kit (Cayman, Cat #520111) as instructed.

[2] = molecular target: T1, human 5-LOX (Homo sapiens, UniProt P09917); assay: 5-LOX enzyme activity, fluorescence method (5-HPETE, H2DCFDA); format: biochemical; conditions: read-out: 5-LO (IC50)
T1 construct: purchased Cayman 60402; host or cells: insect cells (lysate)
T1 sequence (P09917 1-674): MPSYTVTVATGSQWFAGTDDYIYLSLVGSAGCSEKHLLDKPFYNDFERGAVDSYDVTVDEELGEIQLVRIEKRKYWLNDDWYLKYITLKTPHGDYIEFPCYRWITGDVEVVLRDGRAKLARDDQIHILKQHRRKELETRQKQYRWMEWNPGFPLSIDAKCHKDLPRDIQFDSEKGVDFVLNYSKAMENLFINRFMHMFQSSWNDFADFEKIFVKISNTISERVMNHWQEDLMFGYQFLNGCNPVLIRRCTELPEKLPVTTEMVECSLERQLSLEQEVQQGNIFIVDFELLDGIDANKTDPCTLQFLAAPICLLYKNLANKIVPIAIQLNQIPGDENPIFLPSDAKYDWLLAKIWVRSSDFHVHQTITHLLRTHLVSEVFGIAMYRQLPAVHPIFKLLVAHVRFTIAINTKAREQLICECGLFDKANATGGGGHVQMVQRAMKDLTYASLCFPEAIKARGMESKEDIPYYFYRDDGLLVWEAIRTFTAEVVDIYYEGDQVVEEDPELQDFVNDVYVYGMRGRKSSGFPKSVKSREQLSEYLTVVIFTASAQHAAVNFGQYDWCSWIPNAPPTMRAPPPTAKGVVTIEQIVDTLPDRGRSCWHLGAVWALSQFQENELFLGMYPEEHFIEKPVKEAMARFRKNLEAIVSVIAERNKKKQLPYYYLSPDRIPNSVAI
Method: The activity of compounds against 5-LOX were determined by measuring LTB4 (leukotriene B4) levels and/or by a fluorescence method. Both approaches are outlined in more detail below;
The compound, in a dose response manner(0.5 nM to 10 uM), and enzyme mixture was pre-incubated for 5 minutes, and the enzymatic reaction was initiated by addition of ATP and arachidonic acid to a final concentration of 100 uM and 3 uM, respectively. […] All steps were carried out at room temperature.

| SMILES | EC50 [1] [µM] | IC50 [2] [µM] |
| --- | --- | --- |
| FC(F)(F)Oc1ccc(OCCn2c(N3CCCC3)nc3cc(N4CCC4)ccc32)cc1 [Compound 85] | > 20 | 1 to 10 |
| Nc1ccc2c(c1)nc(-n1cc(F)cn1)n2CCOc1ccc(OC(F)(F)F)cc1 [Compound 82] | 10 to 20 | > 10 |
| CCn1c(NCc2ccc(Oc3ccc(Cl)cn3)cc2)nc2ccc(Nc3cc(C(F)(F)F)n(C)n3)cc21 [Compound 511] | < 10 | > 10 |
| Cn1c(NCc2ccc(Oc3ncc(Cl)cc3Cl)cc2)nc2ccc(NC3COC3)cc21 [Compound 322] | < 10 | > 10 |
| Cn1c(NCc2ccc(Oc3ccc4cccc(Cl)c4n3)cc2)nc2ccc(N)cc21 [Compound 421] | < 10 | < 1 |
| CCC(Nc1nc2ccc(N)cc2n1C)c1ccc(Oc2ncc(Cl)cn2)cc1 (stereo not shown) [Compound 452] | < 10 | < 1 |
| Nc1nc2ccc(N3CCC(Oc4ccc(OC(F)(F)F)cc4)C3)cc2[nH]1 (stereo not shown) [Compound 63] | 10 to 20 | < 1 |
| CC(C)n1c(NCc2ccc(Oc3ccc(Cl)cn3)cc2)nc2ccc(N)cc21 [Compound 258] | < 10 | < 1 |
| COCCN(Cc1ccc(Oc2ccc(Cl)cn2)cc1)c1nc2ccc(NC3COC3)cc2n1C [Compound 339] | 10 to 20 | < 1 |
| Cn1c(NCc2ccc(Oc3ccncn3)cc2)nc2ccc(N)cc21 [Compound 370] | 10 to 20 | < 1 |
| CN(C)c1nc2cc(N3CCC(c4nc5ccc(Cl)cc5o4)C3)ccc2[nH]1 (stereo not shown) [Compound 236] | < 10 | < 1 |
| Nc1ccc2nc(NCc3ccc(C(=O)c4ccccn4)cc3)[nH]c2c1 [Compound 141] | > 20 | < 1 |
| CCn1c(NCc2ccc(Oc3ccc(Cl)cn3)cc2)nc2ccc(N)cc21 [Compound 265] | < 10 | < 1 |
| CNC(=O)c1cnc(Oc2ccc(CNc3nc4ccc(N)cc4n3C)cc2)nc1 [Compound 462] | > 20 | < 1 |
| Cn1c(NCc2ccc(Oc3ncc(Cl)c4ccccc34)cc2)nc2ccc(N)cc21 [Compound 399] | < 10 | < 1 |
| CCn1c(NCc2ccc(Oc3cnc(Cl)cn3)cc2)nc2ccc(Nc3n[nH]c(C)c3Cl)cc21 [Compound 515] | < 10 | > 10 |
| COc1cc2[nH]c(NCc3ccc(Oc4ccc(Cl)cc4)cc3)nc2cc1N [Compound 146] | 10 to 20 | < 1 |

| SMILES | EC50 [1] [µM] | IC50 [2] [µM] |
| --- | --- | --- |
| CCC(Nc1nc2ccc(N)cc2n1C)c1ccc(Oc2ccc(Cl)cn2)cc1 (stereo not shown) [Compound 274] | < 10 | < 1 |
| Cn1c(NCc2ccc(Oc3ncc(Cl)cn3)cc2)nc2ccc(Nc3n[nH]cc3C(N)=O)cc21 [Compound 488] | > 20 | 1 to 10 |
| Cn1c(NCc2ccc(COc3ccc(Cl)cn3)cc2)nc2ccc(N)cc21 [Compound 304] | < 10 | < 1 |
| COCCn1c(NCc2ccc(Oc3ccc(Cl)cn3)cc2)nc2ccc(N)cc21 [Compound 263] | 10 to 20 | < 1 |
| CCN(c1ccc2nc(NCc3ccc(Oc4ccc(Cl)cn4)cc3)n(C)c2c1)C1COC1 [Compound 278] | < 10 | < 1 |
| Cc1cnc(Oc2ccc(CNc3nc4ccc(NC5COC5)cc4n3C)cc2)nc1 [Compound 349] | < 10 | < 1 |
| CN(C)c1nc2ccc(NCc3ccc(N(Cc4ncco4)c4ccc(F)cc4)cc3)cc2[nH]1 [Compound 213] | < 10 | < 1 |
| Cn1c(NCc2ccc(Oc3ncc4cccc(Cl)c4n3)cc2)nc2ccc(N)cc21 [Compound 436] | < 10 | < 1 |
| Cc1cc(Oc2ccc(Cl)cn2)cc(C)c1CNc1nc2ccc(N)cc2n1C [Compound 334] | 10 to 20 | < 1 |
| Cn1c(NCc2ccc(Oc3nc4ccc(Cl)cc4n3C)cc2)nc2ccc(N)cc21 [Compound 428] | < 10 | < 1 |
| Cn1c(NCc2ccc(Oc3ccc(Cl)nc3)cc2)nc2ccc(N)cc21 [Compound 280] | < 10 | < 1 |
| Cn1c(NCc2ccc(Oc3ncc(Cl)cn3)cc2)nc2ccc(NC3CSC3)cc21 [Compound 366] | < 10 | < 1 |
| O=C(NC1CCCC1)c1c[nH]nc1Nc1ccc2[nH]c(NCc3ccc(Oc4ccc(Cl)cc4)cc3)nc2c1 [Compound 19] | – | < 1 |
| Cn1c(NCc2cc(Cl)c(Oc3ncc(Cl)cn3)cc2Cl)nc2ccc(N)cc21 [Compound 432] | < 10 | < 1 |
| Nc1ccc2[nH]c(NCc3ccc(N4CCC(Oc5ccc(Cl)cc5)CC4)cc3)nc2c1 [Compound 2] | – | < 1 |
| Nc1nc2ccc(Nc3n[nH]cc3C(=O)NC3CCCC3)cc2n1CCOc1ccc(OC(F)(F)F)cc1 [Compound 18] | – | 1 to 10 |

Now from value to molecule:

| EC50 [1] [µM] | IC50 [2] [µM] | SMILES |
| --- | --- | --- |
| 10 to 20 | < 1 | Clc1ccc(Oc2ccc(CNc3nc4ccc(NC5COC5)cc4n3C3COC3)cc2)nc1 [Compound 266] |
| < 10 | < 1 | Cc1cc(CNc2nc3ccc(NC4COC4)cc3n2C)ccc1Oc1ccc(Cl)cn1 [Compound 283] |
| < 10 | < 1 | Cc1ccc(Oc2ccc(CNc3nc4ccc(N)cc4n3C)cc2)nc1 [Compound 352] |
| > 20 | < 1 | CCOC(c1ccc(CNc2nc3ccc(N)cc3[nH]2)cc1)c1ccccn1 (stereo not shown) [Compound 188] |
| 10 to 20 | < 1 | Cn1c(NCc2ccc(Oc3ccc(Cl)cc3)cc2)nc2ccc(NCC(N)=O)cc21 [Compound 170] |
| < 10 | < 1 | Cn1c(NCc2ccc3c(ccn3-c3ccc(Cl)cn3)c2)nc2ccc(NC3COC3)cc21 [Compound 457] |
| > 20 | < 1 | CN(C)C(=O)c1cnc(Oc2ccc(CNc3nc4ccc(N)cc4n3C)cc2)nc1 [Compound 456] |
| < 10 | < 1 | Cn1c(NCc2ccc(Oc3ncc(C(F)(F)F)cn3)cc2)nc2c(F)cc(NC3COC3)cc21 [Compound 551] |
| < 10 | < 1 | Cn1c(NCc2ccc(Oc3ncc(Cl)c(C4CC4)n3)cc2)nc2ccc(N)cc21 [Compound 397] |
| > 20 | < 1 | Cn1c(NCc2ccc(Oc3ccc(Cl)cc3)cc2)nc2ccc(N)cc21 [Compound 167] |
| > 20 | < 1 | Cn1c(NCc2ccc(Oc3ncc(Cl)cn3)cc2)nc2ccc(NC3CN(C(=N)N)C3)cc21 [Compound 443] |
| < 10 | < 1 | Cn1c(NCc2ccc(Oc3ncc4cc(Cl)ccc4n3)cc2)nc2ccc(N)cc21 [Compound 405] |
| < 10 | < 1 | CN(C)CCn1c(NCc2ccc(Oc3ccc(Cl)cn3)cc2)nc2ccc(NC3COC3)cc21 [Compound 332] |
| < 10 | < 1 | Cn1c(NCc2ccc(Oc3ccnc4cc(Cl)ccc34)cc2)nc2ccc(NC3COC3)cc21 [Compound 384] |
| < 10 | < 1 | Cn1c(NCc2ccc(Oc3ncc(Cl)c(C4CC4)n3)cc2)nc2ccc(NC3COC3)cc21 [Compound 398] |
| > 20 | < 1 | Cn1c(NCc2ccc(Oc3ccc(Cl)cn3)cc2)nc2ccc(NC3CN(C(N)=O)C3)cc21 [Compound 404] |
| < 10 | < 1 | Cn1c(NCc2ccc(Oc3ccc(Cl)cn3)c(F)c2)nc2ccc(N)cc21 [Compound 267] |
